Data from ChEMBL document CHEMBL1255345, “Efficacies of ceftobiprole medocaril and comparators in a rabbit model of osteomyelitis due to methicillin-resistant Staphylococcus aureus” (Antimicrob Agents Chemother, 2008).
Converted amounts (≈) assume the structure as drawn. The source made the active and inactive calls. The calls are words filed in the database; no cut-off is given here.

What was measured:
[1] = test system: Staphylococcus aureus; assay: Antimicrobial activity against methicillin-resistant Staphylococcus aureus infected in New Zealand rabbit osteomyelitis model assessed as improvement in extent of bone remodeling at 60 mg/kg, po administered every 8 hrs for 4 weeks measured on week 6 postinfection radiographic analysis; type: functional, organism-based; parameters: dose 60 mg/kg
[2] = Cmax in New Zealand rabbit osteomyelitis model at 40 mg/kg, sc administered every 6 hrs for 4 days; type: ADME, organism-based, Oryctolagus cuniculus; parameters: dose 40 mg/kg, route subcutaneous; conditions: in vivo
[3] = test system: Oryctolagus cuniculus; assay: Toxicity in methicillin-resistant Staphylococcus aureus-infected New Zealand rabbit osteomyelitis model assessed as body weight at 60 mg/kg, po administered every 8 hrs for 4 weeks measured on week 6 postinfection (reference value: 2.43 +/- 0.15 kg); conditions: in vivo
[4] = test system: Staphylococcus aureus; assay: Antimicrobial activity against methicillin-resistant Staphylococcus aureus infected in New Zealand rabbit osteomyelitis model assessed as improvement in extent of bone remodeling at 60 mg/kg, po administered every 8 hrs for 4 weeks measured on week 8 postinfection radiographic analysis; type: functional, organism-based; parameters: dose 60 mg/kg
[5] = test system: Staphylococcus aureus; assay: (§1) Antimicrobial activity against methicillin-resistant Staphylococcus aureus infected in New Zealand rabbit osteomyelitis model assessed as bacterial count per gram of tibial marrow at 60 mg/kg, po administered every 8 hrs for 4 weeks measured on week 8 postinfection (reference value: 1.04 +/- 2.63 CFU/g); type: functional, organism-based; parameters: dose 60 mg/kg
[6] = test system: Staphylococcus aureus; assay: Antimicrobial activity against methicillin-resistant Staphylococcus aureus infected in New Zealand rabbit osteomyelitis model assessed as improvement in rate of bone reconstruction at 60 mg/kg, po administered every 8 hrs for 4 weeks measured on week 8 postinfection radiographic analysis; type: functional, organism-based; parameters: dose 60 mg/kg
[7] = test system: Staphylococcus aureus; assay: as §1, with “matrix” for “marrow”; type: functional, organism-based; parameters: dose 60 mg/kg
[8] = AUC in methicillin-resistant Staphylococcus aureus-infected New Zealand rabbit osteomyelitis model at 60 mg/kg, po after 24 hrs; type: ADME, organism-based, Oryctolagus cuniculus; parameters: time < 24 hr, dose 60 mg/kg, route oral; conditions: in vivo
[9] = test system: Oryctolagus cuniculus; assay: Toxicity in methicillin-resistant Staphylococcus aureus-infected New Zealand rabbit osteomyelitis model assessed as body weight at 60 mg/kg, po administered every 8 hrs for 4 weeks measured on week 4 postinfection (reference value: 2.43 +/- 0.15 kg); conditions: in vivo
[10] = test system: Staphylococcus aureus; assay: Antimicrobial activity against methicillin-resistant Staphylococcus aureus infected in New Zealand rabbit osteomyelitis model assessed as improvement in extent of bone remodeling at 60 mg/kg, po administered every 8 hrs for 4 weeks measured on week 2 postinfection radiographic analysis; type: functional, organism-based; parameters: dose 60 mg/kg
[11] = AUC in New Zealand rabbit osteomyelitis model at 40 mg/kg, sc administered every 6 hrs for 4 days; type: ADME, organism-based, Oryctolagus cuniculus; parameters: dose 40 mg/kg, route subcutaneous; conditions: in vivo
[12] = test system: Staphylococcus aureus; assay: Antimicrobial activity against methicillin-resistant Staphylococcus aureus infected in New Zealand rabbit osteomyelitis model assessed as improvement in rate of bone reconstruction at 60 mg/kg, po administered every 8 hrs for 4 weeks measured on week 6 postinfection radiographic analysis; type: functional, organism-based; parameters: dose 60 mg/kg
[13] = test system: Oryctolagus cuniculus; assay: Toxicity in methicillin-resistant Staphylococcus aureus-infected New Zealand rabbit osteomyelitis model assessed as body weight at 60 mg/kg, po administered every 8 hrs for 4 weeks measured on week 8 postinfection (reference value: 2.43 +/- 0.15 kg); conditions: in vivo
[14] = test system: Oryctolagus cuniculus; assay: Toxicity in methicillin-resistant Staphylococcus aureus-infected New Zealand rabbit osteomyelitis model assessed as body weight at 60 mg/kg, po administered every 8 hrs for 4 weeks measured on week 2 postinfection (reference value: 2.43 +/- 0.15 kg); conditions: in vivo
[15] = test system: Staphylococcus aureus; assay: Antimicrobial activity against Staphylococcus aureus 168-1 isolated from osteomyelitis patient by broth macrodilution method; type: functional
[16] = test system: Oryctolagus cuniculus; assay: Cmin in New Zealand rabbit at 20 mg/kg, sc administered every 6 hrs for 4 days measured after 1 hr post first dose by RP-HPLC/MS/MS; type: ADME, organism-based; parameters: dose 20 mg/kg, route subcutaneous; conditions: in vivo, 1 h

In the case of `CC(=O)NC[C@H]1CN(c2ccc(N3CCOCC3)c(F)c2)C(=O)O1` [LINEZOLID], the Activity [1] is reported as “Active”, the Cmax [2] is reported as 27200 ng/mL and the Activity [3] is reported as 2.36 kg. The Activity [4] was “Active”, the Activity [5] was “Active” and the Activity [6] was “Active”. The Activity [7] was “Active”, the AUC at 24 h [8] was 334 µg·h/mL and the Activity [9] was 2.44 kg. For the same compound, the Activity [10] was “Active”, the AUC [11] was 173 µg·h/mL and the Activity [12] was “Active”. The Activity [13] was 2.42 kg, the Activity [14] was 2.35 kg and the MBC [15] was 12.5 µg/mL (≈ 37.1 µM). For the same compound, the MIC [15] was 1.56 µg/mL (≈ 4.62 µM) and the CFU [16] was 0.18 ×10⁷ /g.
